The compounds below were run on MNV (assay: MNV CPE reduction assay (MTS) in RAW 264.7 cells). Settings: Norovirus, RAW264.7, in Mus musculus, Table 2, RAW 264.7, range 0.6–100 µM, at least three independent experiments.
Format: cell-based, mouse norovirus (MNV-1.CW1)
In short: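 MNV-1.CW1-infected RAW 264.7 cells treated at eight concentrations (0.6–100 µM), 2′-C-methylcytidine as positive control. Viability read by MTS/PMS at OD 498 nm after 2 h; %CPE reduction normalised to uninfected and infected untreated cells, EC50 = concentration protecting 50% of cells from virus-induced CPE.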
Compound Cc1ccc(C(=O)NC(=S)Nc2ccc(N3CCN(C(=O)c4cccs4)CC3)cc2)cc1 [Compound 52, 4-Methyl-N-((4-(4-(thiophene-2-carbonyl)piperazin-1-yl)phenyl)carbamothioyl)benzamide] has an EC50 of 45.1 ± 10.8 µM. O=C(NC(=S)Nc1ccc(N2CCN(C(=O)c3cccs3)CC2)cc1)c1sc2ccccc2c1Cl [Compound 48, 3-Chloro-N-((4-(4-(thiophene-2-carbonyl)piperazin-1-yl)phenyl)carbamothioyl)benzo[b]thiophene-2-carboxamide, reference compound] was tested, and the EC50 was 58.2 ± 20.7 µM. Work on O=C(NC(=S)Nc1ccc(N2CCN(C(=O)c3nccs3)CC2)cc1)c1sc2ccccc2c1Cl [Compound 56, 3-Chloro-N-((4-(4-(thiazole-2-carbonyl)piperazin-1-yl)phenyl)carbamothioyl)benzo[b]thiophene-2-carboxamide] yielded an EC50 of 66.1 ± 12.3 µM.
